# Like-named read-outs stand apart in the source and are kept apart here.
# What was measured:
# K. pneumoniae 113250 = format: cell-based, Klebsiella pneumoniae; settings: for MICUTBLP: UTBLP alone
# Protocol: (§1) The synergy of the UTBLPs with various antibiotics was assessed using checkerboard assay as previously described. Briefly, the combination of antibiotic and OMP at varying concentrations were incubated with bacterial inoculum (5 × 10^5 CFU/mL final concentration) at 37 °C for 18 h. Growth in the form of turbidity was confirmed using an EMax Plus microplate reader (Molecular Devices, Union City, CA, USA) at 590 nm. Fractional inhibitory concentration index (FICI) was used to evaluate the interaction between the antibiotic and the OMP. FICI is the sum of the FIC of the antibiotic and the FIC of the OMP. The FIC value is calculated by dividing the MIC of the agents in combination by the MIC of the agent alone. FICI ≤ 0.5 is synergistic, 0.5 < x ≤ 4 is additive, and >4 is antagonistic.
# E. cloacae 118564 = format: cell-based, Enterobacter cloacae; settings: for MICUTBLP: UTBLP alone
# Protocol: as §1
# P. aeruginosa PAO1 = format: cell-based, Pseudomonas aeruginosa; settings: for MICUTBLP: UTBLP alone
# Protocol: as §1
# [1] = system: P. aeruginosa PA262-101856; format: cell-based, Pseudomonas aeruginosa; settings: for MICUTBLP: UTBLP alone
# Protocol: as §1
# [2] = system: P. aeruginosa PA259-96196; format: cell-based, Pseudomonas aeruginosa; settings: for MICUTBLP: UTBLP alone
# Protocol: as §1
# MRSA ATCC 33592 = format: cell-based, Staphylococcus aureus
# Protocol: as §1
# S. aureus ATCC 29213 = format: cell-based, Staphylococcus aureus
# Protocol: as §1
# E. faecalis ATCC 29212 = format: cell-based, Enterococcus faecalis; settings: ATCC 29212, 18 h
# Protocol: (§2) The in vitro antibacterial activity of the UTBLPs was assessed against wild-type and clinically isolated bacterial strains. To obtain the MIC of the compounds, the microbroth dilution susceptibility assay was performed according to the Clinical and Laboratory Standards Institute (CLSI, Wayne, PA, USA) guidelines and as previously described. Briefly, the compounds at varying concentrations were incubated with bacterial inoculum (5 × 10^5 CFU/mL final concentration) at 37 °C for 18 h. Growth in the form of turbidity was confirmed using an EMax Plus microplate reader (Molecular Devices, San Jose, CA, USA) at 590 nm.
# E. coli 94474 = format: cell-based, Escherichia coli; settings: for MICUTBLP: UTBLP alone
# Protocol: as §1
# A. baumannii AB92247 = experiment: microbe, parasite or virus in culture; format: cell-based, Acinetobacter baumannii; settings: AB92247, 18 h
# Procedure, shortened: (§3)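 Turbidity at 590 nm defined growth, from which the MIC was taken. Cultures at a final density of 5 × 10^5 CFU/mL were exposed to a range of compound levels at 37 °C for 18 h in a CLSI-based microdilution format.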
# A. baumannii AB027 [3] = experiment: microbe, parasite or virus in culture; format: cell-based, Acinetobacter baumannii; settings: AB027, 18 h
# Procedure, shortened: as §3
# A. baumannii ATCC 17978 [4] = format: cell-based, Acinetobacter baumannii; settings: ATCC 17978, 18 h
# Protocol: as §2
# A. baumannii 92247 = format: cell-based, Acinetobacter baumannii; settings: for MICUTBLP: UTBLP alone
# Protocol: as §1
# A. baumannii AB027 [5] = format: cell-based, Acinetobacter baumannii; settings: for MICUTBLP: UTBLP alone
# Protocol: as §1
# A. baumannii ATCC 17978 [6] = format: cell-based, Acinetobacter baumannii; settings: for MICUTBLP: UTBLP alone
# Protocol: as §1
# E. faecium ATCC 27270 = format: cell-based, Enterococcus faecium; settings: ATCC 27270, 18 h
# Protocol: as §2
# [7] = UTBLP in combination with novobiocin
# [8] = UTBLP in combination with rifampicin
# [9] = novobiocin in combination with the UTBLP
# [10] = rifampicin in combination with the UTBLP
# [11] = UTBLP in combination with chloramphenicol
# [12] = UTBLP in combination with niclosamide
# [13] = chloramphenicol in combination with the UTBLP
# [14] = niclosamide in combination with the UTBLP
# [15] = UTBLP alone, plate with chloramphenicol
compound,measurement,setting,value
CCCCCCCC(=O)N[C@@H](CCCCNC)C(=O)NCCCN(CCCNC(=O)[C@H](CCCCNC)NC(=O)CCCCCCC)CC(=O)N[C@@H](CCCCNC)C(N)=O [UTBLP 2],Interpretation,K. pneumoniae 113250; UTBLP + novobiocin,Synergy (FICI ≤ 0.5 is synergistic)
same,Interpretation,K. pneumoniae 113250; UTBLP + rifampicin,Synergy (FICI ≤ 0.5 is synergistic)
same,MICUTBLP,K. pneumoniae 113250; plate with novobiocin,> 128 µg/mL
same,MICUTBLP,K. pneumoniae 113250; plate with rifampicin,> 128 µg/mL
same,MICUTBLP [MICcombo],K. pneumoniae 113250; [7],16 µg/mL
same,MICUTBLP [MICcombo],K. pneumoniae 113250; [8],16 µg/mL
same,MICantibiotic [MICcombo],K. pneumoniae 113250; [9],4 µg/mL
same,MICantibiotic [MICcombo],K. pneumoniae 113250; [10],4 µg/mL
same,Interpretation,E. cloacae 118564; UTBLP + novobiocin,Synergy (FICI ≤ 0.5 is synergistic)
same,Interpretation,E. cloacae 118564; UTBLP + rifampicin,Synergy (FICI ≤ 0.5 is synergistic)
same,MICUTBLP,E. cloacae 118564; plate with novobiocin,> 128 µg/mL
same,MICUTBLP,E. cloacae 118564; plate with rifampicin,> 128 µg/mL
same,MICUTBLP [MICcombo],E. cloacae 118564; [7],16 µg/mL
same,MICUTBLP [MICcombo],E. cloacae 118564; [8],16 µg/mL
same,MICantibiotic [MICcombo],E. cloacae 118564; [9],8 µg/mL
same,Interpretation,P. aeruginosa PAO1; UTBLP + chloramphenicol,Synergy (FICI ≤ 0.5 is synergistic)
same,Interpretation,P. aeruginosa PAO1; UTBLP + niclosamide,Additive (0.5 < x ≤ 4 is additive)
same,Interpretation,P. aeruginosa PAO1; UTBLP + novobiocin,Synergy (FICI ≤ 0.5 is synergistic)
same,Interpretation,P. aeruginosa PAO1; UTBLP + rifampicin,Additive (0.5 < x ≤ 4 is additive)
same,MICUTBLP,P. aeruginosa PAO1; plate with chloramphenicol,> 128 µg/mL
same,MICUTBLP,P. aeruginosa PAO1; plate with niclosamide,> 128 µg/mL
same,MICUTBLP,P. aeruginosa PAO1; plate with novobiocin,> 128 µg/mL
same,MICUTBLP,P. aeruginosa PAO1; plate with rifampicin,> 128 µg/mL
same,MICUTBLP [MICcombo],P. aeruginosa PAO1; [11],8 µg/mL
same,MICUTBLP [MICcombo],P. aeruginosa PAO1; [12],0.25 µg/mL
same,MICUTBLP [MICcombo],P. aeruginosa PAO1; [7],16 µg/mL
same,MICUTBLP [MICcombo],P. aeruginosa PAO1; [8],8 µg/mL
same,MICantibiotic [MICcombo],P. aeruginosa PAO1; [13],8 µg/mL
same,MICantibiotic [MICcombo],P. aeruginosa PAO1; [14],1024 µg/mL
same,MICantibiotic [MICcombo],P. aeruginosa PAO1; [9],256 µg/mL
same,MICantibiotic [MICcombo],P. aeruginosa PAO1; [10],8 µg/mL
same,Interpretation,[1]; UTBLP + novobiocin,Additive (0.5 < x ≤ 4 is additive)
same,Interpretation,[1]; UTBLP + rifampicin,Additive (0.5 < x ≤ 4 is additive)
same,MICUTBLP,[1]; plate with novobiocin,> 128 µg/mL
same,MICUTBLP,[1]; plate with rifampicin,> 128 µg/mL
same,MICUTBLP [MICcombo],[1]; [7],16 µg/mL
same,MICUTBLP [MICcombo],[1]; [8],0.25 µg/mL
same,MICantibiotic [MICcombo],[1]; [9],512 µg/mL
same,MICantibiotic [MICcombo],[1]; [10],512 µg/mL
same,Interpretation,[2]; UTBLP + novobiocin,Synergy (FICI ≤ 0.5 is synergistic)
same,Interpretation,[2]; UTBLP + rifampicin,Synergy (FICI ≤ 0.5 is synergistic)
same,MICUTBLP,[2]; plate with novobiocin,> 128 µg/mL
same,MICUTBLP,[2]; plate with rifampicin,> 128 µg/mL
same,MICUTBLP [MICcombo],[2]; [7],16 µg/mL
same,MICUTBLP [MICcombo],[2]; [8],16 µg/mL
same,MICantibiotic [MICcombo],[2]; [9],512 µg/mL
same,MICantibiotic [MICcombo],[2]; [10],4 µg/mL
same,Interpretation,MRSA ATCC 33592; UTBLP + chloramphenicol,Additive (0.5 < x ≤ 4 is additive)
same,MICUTBLP,MRSA ATCC 33592; [15],> 128 µg/mL
same,MICUTBLP [MICcombo],MRSA ATCC 33592; [11],0.25 µg/mL
same,MICchloramphenicol [MICcombo],MRSA ATCC 33592; [13],64 µg/mL
same,MICUTBLP,S. aureus ATCC 29213; [15],128 µg/mL
same,MICUTBLP [MICcombo],S. aureus ATCC 29213; [11],0.25 µg/mL
same,MICchloramphenicol [MICcombo],S. aureus ATCC 29213; [13],16 µg/mL
same,MIC,E. faecalis ATCC 29212,>128 µg/mL
same,Interpretation,E. coli 94474; UTBLP + novobiocin,Synergy (FICI ≤ 0.5 is synergistic)
same,Interpretation,E. coli 94474; UTBLP + rifampicin,Synergy (FICI ≤ 0.5 is synergistic)
same,MICUTBLP,E. coli 94474; plate with novobiocin,> 128 µg/mL
same,MICUTBLP,E. coli 94474; plate with rifampicin,> 128 µg/mL
same,MICUTBLP [MICcombo],E. coli 94474; [7],16 µg/mL
same,MICUTBLP [MICcombo],E. coli 94474; [8],16 µg/mL
same,MICantibiotic [MICcombo],E. coli 94474; [9],4 µg/mL
same,MICantibiotic [MICcombo],E. coli 94474; [10],0.5 µg/mL
same,MIC,A. baumannii AB92247,> 128 µg/mL
same,MIC,A. baumannii AB027 [3],> 128 µg/mL
same,MIC,A. baumannii ATCC 17978 [4],>128 µg/mL
same,Interpretation,A. baumannii 92247; UTBLP + novobiocin,Synergy (FICI ≤ 0.5 is synergistic)
same,Interpretation,A. baumannii 92247; UTBLP + rifampicin,Synergy (FICI ≤ 0.5 is synergistic)
same,MICUTBLP,A. baumannii 92247; plate with novobiocin,> 128 µg/mL
same,MICUTBLP,A. baumannii 92247; plate with rifampicin,> 128 µg/mL
same,MICUTBLP [MICcombo],A. baumannii 92247; [7],16 µg/mL
same,MICUTBLP [MICcombo],A. baumannii 92247; [8],16 µg/mL
same,MICantibiotic [MICcombo],A. baumannii 92247; [9],0.25 µg/mL
same,MICantibiotic [MICcombo],A. baumannii 92247; [10],0.063 µg/mL
same,Interpretation,A. baumannii AB027 [5]; UTBLP + novobiocin,Synergy (FICI ≤ 0.5 is synergistic)
same,Interpretation,A. baumannii AB027 [5]; UTBLP + rifampicin,Synergy (FICI ≤ 0.5 is synergistic)
same,MICUTBLP,A. baumannii AB027 [5]; plate with novobiocin,> 128 µg/mL
same,MICUTBLP,A. baumannii AB027 [5]; plate with rifampicin,> 128 µg/mL
same,MICUTBLP [MICcombo],A. baumannii AB027 [5]; [7],16 µg/mL
same,MICUTBLP [MICcombo],A. baumannii AB027 [5]; [8],16 µg/mL
same,MICantibiotic [MICcombo],A. baumannii AB027 [5]; [9],0.25 µg/mL
same,MICantibiotic [MICcombo],A. baumannii AB027 [5]; [10],0.063 µg/mL
same,Interpretation,A. baumannii ATCC 17978 [6]; UTBLP + chloramphenicol,Additive (0.5 < x ≤ 4 is additive)
same,Interpretation,A. baumannii ATCC 17978 [6]; UTBLP + niclosamide,Synergy (FICI ≤ 0.5 is synergistic)
same,Interpretation,A. baumannii ATCC 17978 [6]; UTBLP + novobiocin,Synergy (FICI ≤ 0.5 is synergistic)
same,Interpretation,A. baumannii ATCC 17978 [6]; UTBLP + rifampicin,Synergy (FICI ≤ 0.5 is synergistic)
same,MICUTBLP,A. baumannii ATCC 17978 [6]; plate with chloramphenicol,> 128 µg/mL
same,MICUTBLP,A. baumannii ATCC 17978 [6]; plate with niclosamide,> 128 µg/mL
same,MICUTBLP,A. baumannii ATCC 17978 [6]; plate with novobiocin,> 128 µg/mL
same,MICUTBLP,A. baumannii ATCC 17978 [6]; plate with rifampicin,> 128 µg/mL
same,MICUTBLP [MICcombo],A. baumannii ATCC 17978 [6]; [11],0.25 µg/mL
same,MICUTBLP [MICcombo],A. baumannii ATCC 17978 [6]; [12],8 µg/mL
same,MICUTBLP [MICcombo],A. baumannii ATCC 17978 [6]; [7],8 µg/mL
same,MICUTBLP [MICcombo],A. baumannii ATCC 17978 [6]; [8],16 µg/mL
same,MICantibiotic [MICcombo],A. baumannii ATCC 17978 [6]; [13],64 µg/mL
same,MICantibiotic [MICcombo],A. baumannii ATCC 17978 [6]; [14],2 µg/mL
same,MICantibiotic [MICcombo],A. baumannii ATCC 17978 [6]; [9],0.5 µg/mL
same,MICantibiotic [MICcombo],A. baumannii ATCC 17978 [6]; [10],0.031 µg/mL
same,MIC,E. faecium ATCC 27270,>128 µg/mL
